Data as given in PubChem BioAssay (NCI).
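Growth conditions: 96-well plates. Treatment: test compound, 48 hours, 5 concentrations. Analysis: linear interpolation between bracketing concentrations; unreached endpoints set to highest concentration. GI50: concentration for 50% inhibition of growth. TGI marks complete inhibition of growth.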

How the values were obtained:
Assay in all cases: NCI-60 cell line screen, 48 h
MOLT-4 leukemia = system: MOLT-4 leukemia
NCI-H226 lung = system: NCI-H226 lung
NCI-H23 lung = system: NCI-H23 lung
NCI-H460 lung = system: NCI-H460 lung
NCI/ADR-RES ovarian = system: NCI/ADR-RES ovarian
OVCAR-3 ovarian = system: OVCAR-3 ovarian
OVCAR-4 ovarian = system: OVCAR-4 ovarian
OVCAR-5 ovarian = system: OVCAR-5 ovarian
OVCAR-8 ovarian = system: OVCAR-8 ovarian
PC-3 prostate = system: PC-3 prostate
RPMI-8226 leukemia = system: RPMI-8226 leukemia
SF-268 CNS = system: SF-268 CNS
SF-539 CNS = system: SF-539 CNS
SK-MEL-2 melanoma = system: SK-MEL-2 melanoma
SK-MEL-28 melanoma = system: SK-MEL-28 melanoma
SK-MEL-5 melanoma = system: SK-MEL-5 melanoma
SK-OV-3 ovarian = system: SK-OV-3 ovarian
SN12C renal = system: SN12C renal
SNB-19 CNS = system: SNB-19 CNS
SNB-75 CNS = system: SNB-75 CNS
SR leukemia = system: SR leukemia
SW-620 colon = system: SW-620 colon
TK-10 renal = system: TK-10 renal
U251 CNS = system: U251 CNS
UACC-257 melanoma = system: UACC-257 melanoma
UACC-62 melanoma = system: UACC-62 melanoma
UO-31 renal = system: UO-31 renal

CC(=Nc1ccccc1)C1=C(O)C(Cc2ccc(O)cc2)NC1=O (stereo unspecified)
TGI (MOLT-4 leukemia): > 100000 nM
GI50 (NCI-H226 lung): 968 nM
TGI (NCI-H226 lung): > 100000 nM
GI50 (NCI-H23 lung): 139 nM
TGI (NCI-H23 lung): > 100000 nM
GI50 (NCI-H460 lung): 79.4 nM
TGI (NCI-H460 lung): 1080 nM
GI50 (NCI/ADR-RES ovarian): 57.2 nM
TGI (NCI/ADR-RES ovarian): 793 nM
GI50 (OVCAR-3 ovarian): 25.8 nM
TGI (OVCAR-3 ovarian): 72 nM
GI50 (OVCAR-4 ovarian): 385 nM
TGI (OVCAR-4 ovarian): > 100000 nM
GI50 (OVCAR-5 ovarian): 548 nM
TGI (OVCAR-5 ovarian): > 100000 nM
GI50 (OVCAR-8 ovarian): 255 nM
TGI (OVCAR-8 ovarian): > 100000 nM
GI50 (PC-3 prostate): 53.8 nM
TGI (PC-3 prostate): > 100000 nM
GI50 (RPMI-8226 leukemia): 169 nM
TGI (RPMI-8226 leukemia): > 100000 nM
GI50 (SF-268 CNS): 117 nM
TGI (SF-268 CNS): > 80200 nM
GI50 (SF-539 CNS): 129 nM
TGI (SF-539 CNS): 703 nM
GI50 (SK-MEL-2 melanoma): 206 nM
TGI (SK-MEL-2 melanoma): > 100000 nM
GI50 (SK-MEL-28 melanoma): 59.4 nM
TGI (SK-MEL-28 melanoma): > 100000 nM
GI50 (SK-MEL-5 melanoma): 51.2 nM
TGI (SK-MEL-5 melanoma): 2370 nM
GI50 (SK-OV-3 ovarian): 162 nM
TGI (SK-OV-3 ovarian): > 50000 nM
GI50 (SN12C renal): 991 nM
TGI (SN12C renal): > 100000 nM
GI50 (SNB-19 CNS): 230 nM
TGI (SNB-19 CNS): > 100000 nM
GI50 (SNB-75 CNS): 70 nM
TGI (SNB-75 CNS): 566 nM
GI50 (SR leukemia): 28.3 nM
GI50 (SW-620 colon): 48.5 nM
TGI (SW-620 colon): > 100000 nM
GI50 (TK-10 renal): 252 nM
TGI (TK-10 renal): > 100000 nM
GI50 (U251 CNS): 60.9 nM
GI50 (UACC-257 melanoma): > 100000 nM
TGI (UACC-257 melanoma): > 100000 nM
GI50 (UACC-62 melanoma): 58 nM
TGI (UACC-62 melanoma): > 100000 nM
GI50 (UO-31 renal): 321 nM
TGI (UO-31 renal): > 100000 nM
